Structures can show the parent of a compound that is named as a salt.
Test system: MTT (mouse pheochromocytoma)
Experiment: IC50 of cell viability (ATP content)
Conditions: (24 or 48 h)
How it was run: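 MTT mouse pheochromocytoma cells (5 µl of 200,000 cells/ml per well, white 1536-well plates, DMEM with 5% FBS and 1% horse serum) were cultured overnight at 37°C, 5% CO2. They then received 23 nl library compound in DMSO by pintool at 8 concentrations (final 0.5 nM to 46 µM) for 24 or 48 hrs. CellTiter-Glo ATP luminescence was read after 15 minutes. Signals were normalised to positive-control (100% inhibition) and DMSO (0%) wells, and IC50 came from a four-parameter logistic fit.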

SMILES	IC50 of cell viability [µM]
[H][C@]12CC[N@@]3CC=C(COC(=O)[C@](C)(O)[C@](C)(O)[C@@]([H])(C)C(=O)O1)[C@]23[H] [Monocrotaline]	> 46
Cc1ccc(C2(O)CCN(CCCC(=O)c3ccc(F)cc3)CC2)cc1 [Moperone]	> 46
Cc1ccsc1/C=C\C1=NCCCN1C.O=C(O)[C@@H](O)[C@@H](O)C(=O)O [Morantel tartrate]	> 46
CCOC(=O)Nc1ccc2c(c1)N(C(=O)CCN1CCOCC1)c1ccccc1S2 [Moricizine hydrochloride]	> 46
O=C(NCN1CCOCC1)c1cnccn1 [Morinamida]	> 46
N=C(N)NC(=N)N1CCOCC1 [Moroxidine hydrochloride]	> 46
CN1CC[C@@]23C4OC5=C(O)C=CC(=C25)C[C@@H]1C3\C=C/C4O (some centres undefined) [Morphine]	> 46
O=C1NC2CCCCN2C12CCN(CCCN1c3ccccc3CCc3ccc(Cl)cc31)CC2 (centres undefined) [Mosapramine]	> 46
[Na+].[Na+].CO[C@@]1(NC(=O)[C@H](C([O-])=O)C2=CC=C(O)C=C2)[C@@H]3OC\C(=C(/N3C1=O)C([O-])=O)CSC4=NN=N[N]4C [Moxalactam disodium salt]	> 46
CO/N=C1\C[C@]2(C[C@@H]3C[C@H](CC=C(C)C[C@@H](C)C=CC=C4CO[C@@H]5[C@@H](O)C(C)=C[C@@H](C(=O)O3)[C@]45O)O2)O[C@@H](/C(C)=C/C(C)C)[C@H]1C [Moxidectin]	> 46
CO/N=C1/CC2(CC3CC(CC=C(C)CC(C)C=CC=C4COC5C(O)C(C)=CC(C(=O)O3)C45O)O2)OC(/C(C)=C/C(C)C)C1C (centres undefined) [Moxidectin]	> 46
O.Cl.COC1=C2N(\C=C(C(O)=O)/C(=O)C2=CC(=C1N3C[C@@H]4CCCN[C@@H]4C3)F)C5CC5 [Moxifloxacin Hydrochloride Monohydrate]	> 46
CC(=O)Oc1cc(C(C)C)c(OCCN(C)C)cc1C [Moxisylyte hydrochoride]	> 46
COC1=NC(=NC(=C1N\C2=N\CCN2)Cl)C [Moxonidine]	> 46
CCCCCCC(=O)CCCCCC/C=C/C[C@@H](O)[C@H](O)[C@@](N)(CO)C(=O)O [Myriocin from Mycelia sterilia]	> 46
c1ccc(CNCCNCc2ccccc2)cc1 [N,N'-DIBENZYLETHYLENEDIAMMONIUM DI(ACETATE)]	> 46
C=CC(=O)NCNC(=O)C=C [N,N'-Methylenebis(acrylamide)]	> 46
CCN(CC)CCOc1ccc(Cc2ccccc2)cc1 [N,N-DIETHYL-2-[4-(PHENYLMETHYL)PHENOXY]ETHANAMINE]	> 46
CCN(CC)CCc1c[nH]c2ccccc12 [N,N-Diethyltryptamine]	> 46
C[N+](C)(CCOc1ccccc1)Cc1cccs1.O=S([O-])Oc1ccc(Cl)cc1 [N,N-Dimethyl-N-2-phenoxyethyl-N-2 Äô-thenylammoniu ...]	> 46
CN(C)Cc1ccccc1 [N,N-Dimethylbenzylamine]	> 46
CN(C)CCc1c[nH]c2ccccc12 [N,N-Dimethyltryptamine]	> 46
CCCN(CCC)CCc1c[nH]c2ccccc12 [N,N-Dipropyltryptamine]	> 46
NCCNc1cccc2ccccc12.[Cl-].[Cl-].[H+].[H+] [N-(1-Naphthyl)ethylenediamine 2HCl]	> 46
CC(=O)N[C@@H](Cc1ccc(O)cc1)C(=O)O [N-ACETYL-TYROSINE]	> 46

SMILES	IC50 of cell viability [µM]
CCCCC/C=C\C/C=C\C/C=C\C/C=C\CCCC(=O)NCC(=O)O [N-ARACHIDONYLGLYCINE]	> 46
CC(=O)Nc1ccc([S+](=O)([O-])Nc2cc(C)on2)cc1 [N-Acetyl Sulfamethoxazole]	> 46
CC(=O)N[C@@H](C=O)[C@@H](O)[C@H](O)[C@H](O)CO [N-Acetylgalactosamine]	> 46
NC(=O)N[C@@H](CCC(=O)O)C(=O)O [N-CARBAMYL-L-GLUTAMIC ACID]	> 46
c1ccc2sc(SNC3CCCCC3)nc2c1 [N-CYCLOHEXYLBENZOTHIAZYLSULFENAMIDE]	> 46
O=C1CCC(=O)N1CO [N-HYDROXYMETHYLSUCCINIMIDE]	> 46
CC([C@H](O)c1ccccc1)N(C)C (stereo partly drawn) [N-METHYL (-)EPHEDRINE]	> 46
CNCc1ccccc1.Cl [N-METHYLBENZYLAMINE HYDROCHLORIDE]	> 46
CN1C(=O)c2ccccc2C1=O [N-Methylphthalimide]	> 46
COC(=O)[C@@H](N)CCCNC(=N)N[N+](=O)[O-] [N-NITRO-ARGININE METHYL ESTER]	> 46
COC1=C2OC3C(O)\C=C/C4[C@H]5CC(=C2[C@@]34CCN5)C=C1 (some centres undefined) [N-Norcodeine]	> 46
OC1\C=C/C2[C@H]3CC4=C5C(=C(O)C=C4)OC1[C@@]25CCN3 (some centres undefined) [N-Normorphine]	> 46
CC(=O)N[C@@H](CS)C(=O)O [N-acetylcysteine]	> 46
N=C(N)Nc1ccc(C(=O)Oc2ccc3cc(C(=N)N)ccc3c2)cc1 [NAFAMOSTAT MESILATE]	> 46
COc1ccccc1N1CCN(CC(O)COc2cccc3ccccc23)CC1 (centres undefined) [NAFTOPIDIL]	> 46
Oc1ccc2c3c1O[C@H]1[C@@H](O)CC[C@@]4(O)C(C2)N(CC2CCC2)CCC314 (some centres undefined) [NALBUPHINE]	> 46
C=C1CC[C@@]2(O)[C@H]3Cc4ccc(O)c5c4[C@@]2(CCN3CC2CC2)[C@H]1O5 [NALMEFENE HYDROCHLORIDE]	> 46
O[C@H]1\C=C/[C@H]2[C@H]3CC4=C5C(=C(O)C=C4)O[C@@H]1[C@@]25CCN3CC=C [NALORPHINE HYDROCHLORIDE]	> 46
C=CC[N+]1(C)CCC23c4c5ccc(O)c4O[C@H]2C(=O)CC[C@@]3(O)C1C5 (some centres undefined) [NALOXONE METHIODIDE]	> 46
C=CCN1CCC23c4c5ccc(O)c4O[C@H]2C(=O)CC[C@@]3(O)C1C5 (some centres undefined) [NALOXONE]	> 46
O=C1CC[C@@]2(O)C3Cc4ccc(O)c5c4C2(CCN3CC2CC2)[C@H]1O5 (some centres undefined) [NALTREXONE]	> 46
c1ccc2c(CC3=NCCN3)cccc2c1 [NAPHAZOLINE]	> 46
COc1ccc2cc(C(C)CO)ccc2c1 (centres undefined) [NAPROXOL]	> 46
CC(C)C1CCC(C(=O)NC(Cc2ccccc2)C(=O)O)CC1 (centres undefined) [NATEGLINIDE]	> 46
CCCCC(CC)COS(=O)(=O)[O-] (centres undefined) [NATRII ETASULFAS]	> 46

SMILES	IC50 of cell viability [µM]
O=C([O-])/C=C/C(O)c1ccc(Cl)cc1.[Na+] (centres undefined) [NCS-356]	> 46
[NH2][Pt]1([NH2])[O]CC(=O)[O]1 [NEDAPLATIN]	> 46
COc1nc(N)nc2c1ncn2C1OC(CO)C(O)C1O (centres undefined) [NELARABINE]	> 46
CN(C)C(=O)Oc1cccc([N+](C)(C)C)c1 [NEOSTIGMINE]	> 46
CCCCc1cc2c(=O)c(C(=O)OC)c[nH]c2cc1OCc1ccccc1 [NEQUINATE]	> 46
C=CC(C)(O)CC/C=C(\C)CCC=C(C)C (centres undefined) [NEROLIDOL]	> 46
CNC(=N)NCCC[C@H](N)C(=O)O [NG-Monomethyl-L-arginine acetate]	> 46
CC(=O)O.CNC(=N)NCCC[C@H](N)C(=O)O [NG-Monomethyl-L-arginine acetate]	> 46
O=C(O)c1cccnc1 [NIACIN]	> 46
CCN(CC)CCOC(=O)c1cccnc1.O.O=C(O)CC(O)(CC(=O)O)C(=O)O [NICAMETATE CITRATE]	> 46
COC(=O)\C1=C(/C)N\C(=C(/C1C2=CC=CC(=C2)[N+]([O-])=O)C(=O)OCCN(C)CC3=CC=CC=C3)C (centres undefined) [NICARDIPINE]	> 46
CO[C@]12C[C@@H](COC(=O)c3cncc(Br)c3)CN(C)[C@@H]1Cc1cn(C)c3cccc2c13 [NICERGOLINE]	> 46
O=C(OC[C@@H]1O[C@@](O)(COC(=O)c2cccnc2)[C@H](OC(=O)c2cccnc2)[C@H]1OC(=O)c1cccnc1)c1cccnc1 [NICOFURANOSUM]	> 46
O=C(NCCc1c[nH]c2ccccc12)c1cccnc1 [NICOTREDOLUM]	> 46
COC(=O)\C1=C(/C)N\C(=C(/C1C2=C(C=CC=C2)[N+]([O-])=O)C(=O)OC)C [NIFEDIPINE]	> 46
O=C(O)c1cccnc1Nc1cccc(C(F)(F)F)c1 [NIFLUMIC ACID]	> 46
O=NCc1ccc([N+](=O)[O-])o1 [NIFUROXIME]	> 46
COC(=O)C1=C(C#N)NC(C)=C(C(=O)OC(C)C)C1c1cccc([N+](=O)[O-])c1 (centres undefined) [NILVADIPINE]	> 46
COCCOC(=O)\C1=C(/C)N\C(=C(/C1C2=CC=CC(=C2)[N+]([O-])=O)C(=O)OC(C)C)C (centres undefined) [NIMODIPINE]	> 46
Cc1ncc(CNC(=O)N(CCCl)N=O)c(N)n1 [NIMUSTINE]	> 46
CNCCC(Oc1ccccc1OC)c1ccccc1 (centres undefined) [NISOXETINE]	> 46
O=[N+]([O-])c1ccc([As](=O)(O)O)cc1 [NITARSONE]	> 46
CCN(Cc1ccc(Cl)nc1)/C(=C/[N+](=O)[O-])NC [NITENPYRAM]	> 46
CCOC(=O)\C1=C(/C)N\C(=C(/C1C2=CC=CC(=C2)[N+]([O-])=O)C(=O)OC)C (centres undefined) [NITRENDIPINE]	> 46

From the supplement of paper PMC3974653
